Source: patent US20170333516A1, “PREVENTIVE OR THERAPEUTIC AGENT FOR AGE-RELATED MACULAR DEGENERATION” (JUNTENDO EDUCATIONAL FOUNDATION, priority 2014, published 2017)

Tested on: angiogenesis from the choroid plexus
Assay: Laser-induced angiogenesis from the choroid plexus (AMD model), administration into the vitreous body
Type: in vivo, mouse
Conditions: for suppressive effect on AMD onset (FIG. 2): figure legend FIG. 2, old mice, administration into vitreous body after laser irradiation
Description: Laser light (power: 200 mW, exposure time: 0.10 seconds, wavelength: 532 nm) was irradiated in 4 to 5 spots onto male young (8 to 12 weeks) and old (44 to 48 weeks) BLT1^+/+ mice and BLT1^−/− mice, and after 7 days, the eyes were isolated and fixed using a phosphate buffered saline (PBS) containing 4% paraformaldehyde (PFA), the cornea, lens, and retina were removed, and then fixed again using 4% PFA/PBS. The ocular tissue containing the retinal pigment epithelia and choroid plexus were immersed in PBS containing methanol in order of 50%, 75%, 100%, 75%, 50%, and 25% to remove water, and then incubated at 4° C. for 1 hour in a blocking solution (1% bovine blood serum albumin, phosphate buffered saline containing 0.1% Triton X-100), and then stained overnight at 4° C. using isolectin B4 (IB4, […]) labeled with FITC. Incisions were made in the samples and the samples were molded on a slide glass, sealed with a mounting agent containing an antifading reagent, and then a cover glass was placed thereon to produce a flat mount. A three-dimensional IB4 positive blood vessels image was captured using a confocal microscope, and the volume of angiogenesis that occurred in each mouse was measured.
Immediately after laser light irradiation of C57BL/6 background old mice purchased (Japan SLC, wild mice, 40 weeks or older, male), DMSO (final: 0.1%, diluted with PBS), CP105696 (where in the formula (1), R^1=phenyl and R^2=1-carboxycyclopentyl group) which is a BLT1 antagonist, or zileuton, bestatin, or MK886 each of which is an inhibitor for LTB4 production-related enzyme was administered into a vitreous body of each mouse. Similar to Test Example 1, angiogenesis from the choroid plexus was evaluated 7 days after laser irradiation.

In the case of O=C(O)C1(c2ccc3c(c2)OC[C@H](Cc2ccc(-c4ccccc4)cc2)[C@H]3O)CCCC1 [CP 105696, 1-[(3S,4R)-4-hydroxy-3-[(4-phenylphenyl)methyl]chroman-7-yl]cyclopentane-1-carboxylic acid], the angiogenesis volume (C57BL/6 background old mice (40 weeks or older, male), administered into vitreous body immediately after laser irradiation, evaluated 7 days after laser irradiation) is reported as “significantly reduced in a concentration-dependent manner” and the “suppressive effect on AMD onset (FIG. 2)” value is reported as “suppressive effect”.

For CC(C)c1ccc2c(c1)c(SC(C)(C)C)c(CC(C)(C)C(=O)O)n2Cc1ccc(Cl)cc1 [MK886], the “suppressive effect on AMD onset (FIG. 2)” value was “suppressive effect”.

For CC(C)C[C@H](NC(=O)[C@@H](O)[C@H](N)Cc1ccccc1)C(=O)O [bestatin, N-[(2S,3R)-3-amino-2-hydroxy-4-phenylbutyryl]-L-leucine], the “suppressive effect on AMD onset (FIG. 2)” value was “suppressive effect”.

CC(c1cc2ccccc2s1)N(O)C(N)=O (centres unmarked) [zileuton, N-[1-(1-benzothien-2-yl)ethyl]-N-hydroxyurea] was tested, and the “suppressive effect on AMD onset (FIG. 2)” value was “suppressive effect”.
